This experiment addresses T1, Human O-GlcNAcase (His-Tagged hOGA) (Homo sapiens, UniProt O60502).
T1 sequence (O60502 1-916): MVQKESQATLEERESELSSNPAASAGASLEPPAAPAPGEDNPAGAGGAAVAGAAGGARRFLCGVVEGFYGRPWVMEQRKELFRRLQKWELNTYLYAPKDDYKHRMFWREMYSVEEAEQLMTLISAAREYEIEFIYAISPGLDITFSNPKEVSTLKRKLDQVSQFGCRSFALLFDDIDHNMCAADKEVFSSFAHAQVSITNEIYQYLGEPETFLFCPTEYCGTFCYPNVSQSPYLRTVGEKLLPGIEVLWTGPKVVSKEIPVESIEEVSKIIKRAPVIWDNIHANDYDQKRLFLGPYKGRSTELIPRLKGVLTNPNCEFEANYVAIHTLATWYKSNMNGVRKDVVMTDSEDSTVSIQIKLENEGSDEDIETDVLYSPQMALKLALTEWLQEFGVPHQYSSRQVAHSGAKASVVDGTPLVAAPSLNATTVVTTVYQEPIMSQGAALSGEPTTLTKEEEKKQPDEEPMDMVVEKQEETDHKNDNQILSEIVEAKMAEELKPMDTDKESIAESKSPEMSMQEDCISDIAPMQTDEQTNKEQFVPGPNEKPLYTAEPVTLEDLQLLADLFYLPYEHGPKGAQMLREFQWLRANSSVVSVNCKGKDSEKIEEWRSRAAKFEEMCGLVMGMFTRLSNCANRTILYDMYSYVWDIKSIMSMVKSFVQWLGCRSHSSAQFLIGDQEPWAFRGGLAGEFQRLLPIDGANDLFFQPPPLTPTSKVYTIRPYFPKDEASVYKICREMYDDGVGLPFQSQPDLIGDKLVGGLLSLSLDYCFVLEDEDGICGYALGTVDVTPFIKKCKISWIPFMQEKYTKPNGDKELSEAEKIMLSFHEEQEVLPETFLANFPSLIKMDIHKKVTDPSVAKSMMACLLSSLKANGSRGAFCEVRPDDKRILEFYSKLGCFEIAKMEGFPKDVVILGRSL
In words: Human O-GlcNAcase enzyme inhibition assay. Particulars: 20 nM His-Tagged hOGA, 10 μM FL-GlcNAc, McIlvaine's Buffer pH 6.5, 60 min at room temperature, fluorescence; read-out: OGA IC50. The format is biochemical. The method, then:
Example B01: Human O-GlcNAcase Enzyme Inhibition Assay
5 μl of the appropriate concentration of a solution of inhibitor in Mcllvaine's Buffer (pH 6.5) in 2% DMSO (for a dose response curve calculation) is added into each well of a 384-well plate (Greiner, 781900). Then, 20 nM of His-Tagged hOGA and 10 μM of FL-GlcNAc (Fluorescein mono-beta-D-(2-deoxy-2-N-acetyl) glucopyranoside; Marker Gene Technologies Inc, M1485) were added to the 384-well plate for a final volume of 20 μl. After incubation for 60 min at room temperature, the reaction was terminated by the addition of 10 μL of stop buffer (200 mM glycine, pH 10.75). The level of fluorescence (λexc 485 nm; (λemm 520 nm) was read on a PHERAstar machine. The amount of fluorescence measured was plotted against the concentration of inhibitor to produce a sigmoidal dose response curve to calculate an IC50. All individual data was corrected by subtraction of the background (Thiamet 3 uM=100% inhibition) whilst 0.5% DMSO was considered as the control value (no inhibition).

Results on 27 compounds are retold here after patent US12016852B2, “Pyrrolidine glycosidase inhibitors” (Asceneuron SA, priority 2018, dated 2024).

Consider `Cc1cc(CN2CCCC2c2ccc3c(c2)OCCO3)ccc1-c1cccnc1C` (racemic) [Example 71, 3-(4-((2-(2,3-dihydrobenzo[b] [1,4]dioxin-6-yl)pyrrolidin-1-yl)methyl)-2-methylphenyl)-2-methylpyridine], for which the concentration for half-maximal inhibition (IC50) (as a rule, the midpoint of a concentration-inhibition curve) lay in the range of 0.2 to 1 µM. Under `Cn1cc(-c2ccc(CN3CCCC3c3ccc4c(c3)OCO4)cc2)cn1` (racemic) [Example 72, 4-(4-((2-(benzo[d] [1,3]dioxol-5-yl)pyrrolidin-1-yl)methyl)phenyl)-1-methyl-1H-pyrazole] stands 0.2 to 1 µM; under `O=c1[nH]nc(-c2ccc(CN3CCCC3c3ccc4c(c3)OCCO4)cc2)o1` (racemic) [Example 76, 5-(4-((2-(2,3-dihydrobenzo[b] [1,4]dioxin-6-yl)pyrrolidin-1-yl)methyl)phenyl)-1,3,4-oxadiazol-2(3H)-one], 0.2 to 1 µM; under `c1cnnc(-c2ccc(CN3CCCC3c3ccc4c(c3)OCCO4)cc2)c1` (racemic) [Example 144], 0.05 to 0.2 µM.

On to `CN1CCN(c2ccc(CN3CCCC3c3ccc4c(c3)OCCO4)cc2)CC1` (racemic) [Example 146], for which the IC50 was 1 to 10 µM. With `Cc1cc(CN2CCCC2c2ccc3c(c2)OCCO3)ccc1-c1ccncc1` (racemic) [Example 147], the IC50 was in the range of 1 to 10 µM.

In the case of `CS(=O)(=O)c1cnc(-c2ccc(CN3CCCC3c3ccc4c(c3)OCCO4)cc2)nc1` (racemic) [Example 149], the IC50 lay within 0.05 to 0.2 µM. Consider `Cn1cc(-c2ccc(CN3CCCC3c3ccc4cccnc4c3)cc2)cn1` (racemic) [Example 150], for which the IC50 was 0.05 to 0.2 µM.

On to `COc1cccc(-c2ccc(CN3CCCC3c3ccc4c(c3)OCCO4)cc2)n1` (racemic) [Example 151], for which the 50% inhibitory concentration (IC50) lay in the range of 0.2 to 1 µM. As for `Cn1ccc(-c2ccc(CN3CCCC3c3ccc4c(c3)OCCO4)cc2)n1` (racemic) [Example 152], the IC50 is 0.2 to 1 µM. Regarding `Brc1cncc(Oc2ccc(CN3CCCC3c3ccc4c(c3)OCCO4)cc2)c1` (racemic) [Example 153], the IC50 was in the range of 0.2 to 1 µM. For `N#Cc1ccc(Oc2ccc(CN3CCCC3c3ccc4c(c3)OCCO4)cc2)cc1` (racemic) [Example 154], the IC50 is 0.2 to 1 µM.

On to `Cc1cc(-c2ccc(CN3CCCC3c3ccc4c(c3)OCCO4)cn2)ccn1` (racemic) [Example 155], for which the half-maximal inhibitory concentration (IC50) was in the range of 0.2 to 1 µM. For the compound `Cc1cc(C(=O)Nc2ccc(CN3CCCC3c3ccc4c(c3)OCCO4)cc2)cc(C)n1` (racemic) [Example 156], the half-maximal inhibitory concentration (IC50) is 0.2 to 1 µM.

On to `Fc1cccc(Oc2ccc(CN3CCCC3c3ccc4c(c3)OCCO4)cc2)n1` (racemic) [Example 157], for which the IC50 was 0.2 to 1 µM. For the compound `Cc1cc(C(=O)Nc2ccc(CN3CCCC3c3ccc4c(c3)OCCO4)cc2)ccn1` (racemic) [Example 158], the half-inhibitory concentration (IC50) lay within 0.2 to 1 µM. Consider `COc1ncc(-c2ccc(CN3CCCC3c3ccc4c(c3)OCCO4)cc2)cn1` (racemic) [Example 159], for which the IC50 was less than 0.05 µM. Regarding `Fc1ccc(-c2ccc(CN3CCCC3c3ccc4c(c3)OCCO4)cc2)nc1` (racemic) [Example 160], the half-inhibitory concentration (IC50) is 0.05 to 0.2 µM.

For `Cc1ccc(-c2nc(CN3CCCC3c3ccc4c(c3)OCO4)co2)cc1` (single isomer, unassigned) [Example 2, (S)-4-((2-(benzo[d] [1,3]dioxol-5-yl)pyrrolidin-1-yl)methyl)-2-(D-tolyl)oxazole or (R)-4-((2-(benzo[d] [1,3]dioxol-5-yl)pyrrolidin-1-yl)methyl)-2-(D-tolyl)oxazole], the IC50 lay in the range of 1 to 10 µM. Regarding `Cn1cc(-c2ccc(CN3CCCC3c3ccc4c(c3)OCCO4)cc2)cn1` (single isomer, unassigned) [Example 6, (S)-4-(4-((2-(2,3-dihydrobenzo[b] [1,4]dioxin-6-yl)pyrrolidin-1-yl)methyl)phenyl)-1-methyl-1H-pyrazole or (R)-4-(4-((2-(2,3-dihydrobenzo[b] [1,4]dioxin-6-yl)pyrrolidin-1-yl)methyl)phenyl)-1-methyl-1 H-pyrazole], the IC50 was less than 0.05 µM. With `Cn1cc(-c2ccc(CN3CCCC3c3ccc4c(c3)OCCO4)cn2)cn1` (single isomer, unassigned) [Example 7, (S)-5-((2-(2,3-dihydrobenzo[b] [1,4]dioxin-6-yl)pyrrolidin-1-yl)methyl)-2-(1-methyl-1H-pyrazol-4-yl)pyridine or (R)-5-((2-(2,3-dihydrobenzo[b] [1,4]dioxin-6-yl)pyrrolidin-1-yl)methyl)-2-(1-methyl-1H-pyrazol-4-yl)pyridine], the half-maximal inhibitory concentration (IC50) is 0.05 to 0.2 µM.

As for `CS(=O)(=O)c1ccc(CN2CCCC2c2ccc3c(c2)OCCO3)cc1` (single isomer, unassigned) [Example 13, (S)-2-(2,3-dihydrobenzo[b] [1,4]dioxin-6-yl)-1-(4-(methylsulfonyl)benzyl) pyrrolidine or (R)-2-(2,3-dihydrobenzo[b] [1,4]dioxin-6-yl)-1-(4-(methylsulfonyl)benzyl) pyrrolidine], the IC50 was in the range of 0.2 to 1 µM. Regarding `Cn1cc(-c2ccc(CN3CCCC3c3ccc4c(c3)OCCO4)nc2)cn1` (single isomer, unassigned) [Example 18, (S)-2-((2-(2,3-dihydrobenzo[b] [1,4]dioxin-6-yl)pyrrolidin-1-yl)methyl)-5-(1-methyl-1H-pyrazol-4-yl)pyridine or (R)-2-((2-(2,3-dihydrobenzo[b] [1,4]dioxin-6-yl)pyrrolidin-1-yl)methyl)-5-(1-methyl-1H-pyrazol-4-yl)pyridine], the 50% inhibitory concentration (IC50) is 1 to 10 µM.

For `c1cnc2ccc(CN3CCCC3c3ccc4c(c3)OCCO4)cc2c1` (single isomer, unassigned) [Example 25, (S)-6-((2-(2,3-dihydrobenzo[b] [1,4]dioxin-6-yl)pyrrolidin-1-yl)methyl)quinolone or (R)-6-((2-(2,3-dihydrobenzo[b] [1,4]dioxin-6-yl)pyrrolidin-1-yl)methyl)quinolone], the 50% inhibitory concentration (IC50) lay within 0.05 to 0.2 µM.

For `c1cnn(-c2ccc(CN3CCCC3c3ccc4c(c3)OCCO4)cc2)c1` (single isomer, unassigned) [Example 27, (S)-1-(4-((2-(2,3-dihydrobenzo[b] [1,4]dioxin-6-yl)pyrrolidin-1-yl)methyl)phenyl)-1 H-pyrazole or (R)-1-(4-((2-(2,3-dihydrobenzo[b] [1,4]dioxin-6-yl)pyrrolidin-1-yl)methyl)phenyl)-1H-pyrazole], the IC50 fell in the range of 0.05 to 0.2 µM. Consider `Cc1cc(-c2cccnc2)ccc1CN1CCCC1c1ccc2c(c1)OCCO2` (single isomer, unassigned) [Example 33, (S)-3-(4-((2-(2,3-dihydrobenzo[b] [1,4]dioxin-6-yl)pyrrolidin-1-ylmethyl)-3-methylphenyl)pyridine or (R)-3-(4-((2-(2,3-dihydrobenzo[b] [1,4]dioxin-6-yl)pyrrolidin-1-yl)methyl)-3-methylphenyl)pyridine], for which the IC50 lay within 0.05 to 0.2 µM. With `c1ccc(-c2ccc(CN3CCCC3c3ccc4c(c3)OCCO4)cc2)nc1` (single isomer, unassigned) [Example 40, (S)-2-(4-((2-(2,3-dihydrobenzo[b] [1,4]dioxin-6-yl)pyrrolidin-1-yl)methyl)phenyl)pyridine or (R)-2-(4-((2-(2,3-dihydrobenzo[b] [1,4]dioxin-6-yl)pyrrolidin-1-yl)methyl)phenyl)pyridine], the IC50 lay in the range of 0.05 to 0.2 µM.
